Laboratory results: patent publication US5298509A, “Octahydronaphthoquinolizines, and methods of making and using thereof” (priority 1992, dated 1994)

Columns and labels:
sham-feeding rat [1] = assay: Sucrose ingestion (sham intake) in the sham-feeding rat; assay type: in vivo; conditions: (+)-SKF 10,047 5 mg/kg i.p.; BMY 14802 4 mg/kg i.p.; haloperidol 0.1 mg/kg i.p.; 20% sucrose, 30-min test, N=6
Source text: As a non-limiting example, distinguishing between sigma receptor modulation and dopamine modulation may be accomplished using a D2 distinguishing assay, such as a behavioral assay system which discriminates the effects of dopamine D2 antagonists from sigma modulators or agents. A non-limiting example of a D2 /sigma distinguishing assay system involves quantification of ingestion of sucrose in a sham-feeding rat, where dopamine plays a critical role in the mediation of this behavior. See Schneider, L. H. et al. Eur. J. Pharmacol. 186:61-70 (1990) which is entirely incorporated herein by reference. […] The principal factor which compels the animal to maintain ingestion is the sweet taste of the sucrose solution; the involvement of the ascending mesolimbic dopamine system in this effect appears to be manifested as a modulation of the hedonic potency of the orosensory event (sweet taste). […] Neurosci. Abstr. 16:1028 (1990) which references are incorporated entirely herein by reference.
Differentiation of sigma and dopamine activities are provided by a behavioral assay system which effectively discriminates the effects of dopamine D-2 antagonists from sigma agents. The assay system involves quantification of ingestion of sucrose in the sham-feeding rat.

sigma receptor = conditions: cited from earlier work
sham-feeding rat [2] = assay: Microstructural analysis of licking/ingestive behavior in the sham-feeding rat; assay type: in vivo; conditions: SKF 5 mg/kg, BMY 4 mg/kg, HAL 0.1 mg/kg, i.p.; for interlick intervals (in words): range 0-250 msec
Source text: Motoric components of the ingestive behavior may be differentiated from the "rewarding", sensory components by the use of microstructural analysis, a computer-controlled device which records the time at which each animal licks, to the nearest fractional millisecond. Analysis of licking and ingestive behavior in bursts is monitored through a fixed time test such that sigma agents may influence ingestive behavior either through the motor output systems or through nigrostriatal dopamine systems. The role for sigma sites in motor output systems include those muscles which are associated with licking, biting, and swallowing.
This consists of the use of a computer-controlled device which records the time at which each animal licks, to the nearest fractional millisecond. This then allows analysis of licking and ingestive behavior in bursts through a 30-minute test.
Using this behavioral assay system, with peripheral administration of the various selective drugs, rats (N=6) received 20% sucrose during a 30-min test, such that there was no effect of the sigma agents (+)-SKF 10,047 (5 mg/kg, i.p.; SKF) or BMY 14802 (4 mg/kg, i.p.; BMY) depending upon the volume of the sucrose solution which was ingested. […] These changes are attributed to a shift in the mean of the distribution histogram of interlick intervals. […] The shift in interlick interval distribution is expected to arise from occupancy of hindbrain sigma sites, possibly in the reticular formation, which are involved in definition of the lick rate in the rat.

[3] = test system: sigma versus dopamine D2 receptors; conditions: cited from earlier work
sigma receptors [4] = assay: Sigma binding assay, (3H)-haloperidol, rat cerebellar homogenates; conditions: for binding to sigma sites (in words): rat cerebellar preparation
Procedure: (§1) As a non-limiting subexample, a sigma binding assay can use cerebellar tissue extracts to bind sigma receptor selectively by (^3 H)-halopendol with spiperone used to inhibit-binding to D2 receptors. […] These ligands are incubated at 30° C. with tissue (rat liver, rat cerebellum) homogenates for a 45 min period. In these assays, tissue concentrations used a range from 0.1-0.5 mg protein/mL, and radioligand concentrations range from 50 pM-10 μM. […] Filters are dried and counted for (^3 H)-activity in a liquid scintillation counter. The amount of ligand bound to the tissue receptor is measured with the aid of computer analysis of the data, using the LIGAND or an equivalent algorithm.
(§2) Radioligand binding assays were performed on the tricyclic (cis-cis) hexahydrojulolidine (HHJ), the parent tetracyclic (cis,cis) OHNQ (I-1) and 9-methoxy OHNQ (I-4), for binding to D2 and sigma receptors synthesized according to Example 1. The D2 assays were performed on bovine striatal homogenates using 0.50 nM (^3 H)-spiperone in the presence of 250 μM ketanserin (to inhibit association with some 5-HT receptors and spirodecanone sites), with non-specific binding defined using 10 μM sulpiride according to known methods. The sigma binding assay was performed on bovine and rat cerebellar homogenates using 2.0 nM (^3 H)-haloperidol in the presence of 25 nM spiperone (to inhibit association with D2 dopamine receptors); non-specific binding was defined in the presence of 1 μM unlabeled haloperidol. […] Sigma receptor assays on rat brain preparations using (^3 H)-DTG and (^3 H)-Pentazocine as the radiolabels are performed with good results. […] Additional assays have been performed for D-1 activity (using (^3 H)-SCH23390), and for α-1 and α-2 activity as well as several 5-HT subtypes (5-HT-1-a, 5-HT-3, 5-HT uptake site).
Crude tissue homogenates are prepared by the following general procedure. Frozen tissue is thawed and homogenized in a buffer containing 50 mM Tris-HCI, 120 mM NaCl, 1 mM MgCl2, and 5 mM KCl, pH 8.0. This tissue suspension is sedimented at 100,000×g for a 30 min. period. Following centrifugation, the supernatant is discarded and the resultant pellet is resuspended in the same buffer solution, and respun as previously described.
Ten to twenty point assays are performed in triplicate using either 4 nM (^3 H)-haloperidol, 4 nM (^3 H)-DTG or 0.4 nM (^3 H)-DTG (New England Nuclear) as radiolabels, on rat liver, rat cerebellar or bovine cerebellar homogenates. The concentration of the displacing agent generally ranges between 0.2 nM and 64 μM in a final volume of 2 mL. Non-specific binding is defined by the presence of 1 μM unlabeled haloperidol. Spiperone at a concentration of 25 nM is added in the assays performed with (^3 H)-haloperidol in order to block D2 receptor sites. The buffer system employed is as in the tissue preparation as presented herein. Incubation is carried out for one hour at room temperature after addition of the tissue. Samples are rapidly filtered through Schleicher and Schuell #32 glass filters presoaked with 0.1% polyethyleneimine, on a 24-position cell harvester (Brandel). The filters are washed with ice-cold 10 mM Tris buffer, pH 7.7, and then placed in 2 mL of scintillation fluid. Radioactivity is counted the following day at 40% efficiency.

sigma receptors [5] = assay: Sigma binding assay, (3H)-haloperidol, bovine cerebellar homogenates; conditions: bovine cerebellar preparation
Procedure: as §1
(§3) Radioligand binding assays were performed on the tricyclic (cis-cis) hexahydrojulolidine (HHJ), the parent tetracyclic (cis,cis) OHNQ (I-1) and 9-methoxy OHNQ (I-4), for binding to D2 and sigma receptors synthesized according to Example 1. The D2 assays were performed on bovine striatal homogenates using 0.50 nM (^3 H)-spiperone in the presence of 250 μM ketanserin (to inhibit association with some 5-HT receptors and spirodecanone sites), with non-specific binding defined using 10 μM sulpiride according to known methods. The sigma binding assay was performed on bovine and rat cerebellar homogenates using 2.0 nM (^3 H)-haloperidol in the presence of 25 nM spiperone (to inhibit association with D2 dopamine receptors); non-specific binding was defined in the presence of 1 μM unlabeled haloperidol. […] Sigma receptor assays on rat brain preparations using (^3 H)-DTG and (^3 H)-Pentazocine as the radiolabels are performed with good results. […]
(§4) Ten to twenty point assays are performed in triplicate using either 4 nM (^3 H)-haloperidol, 4 nM (^3 H)-DTG or 0.4 nM (^3 H)-DTG (New England Nuclear) as radiolabels, on rat liver, rat cerebellar or bovine cerebellar homogenates. […] Radioactivity is counted the following day at 40% efficiency.

PCP site = conditions: cited from earlier work
D2 receptor = assay: Dopamine D2 binding assay, (3H)-spiperone, bovine striatal homogenates
Procedure: as §2

5-HT-2 receptor = 5-HT-2 receptor activity assay; assay type: binding
sigma receptors [6] = assay: Sigma receptor binding, rat liver preparations
Procedure: as §1, §3, §4

[7] = solubilized rat liver preparations

## C=CCN1CCC2(C)c3cc(O)ccc3CC1C2C (single isomer, unassigned; (+)) [(+)-SKF 10,047]
sham-feeding rat [1]
  effect on volume of sucrose solution ingested (in words): no effect
Sigma receptor; (+)-NANM versus (-)-NANM
  enantioselectivity for sigma sites (in words): more potent than (-)-NANM
sham-feeding rat [2]
  mean lick cluster size (in words): not SKF or HAL
  interlick intervals (in words): not SKF or HAL

## CCCN1CCCC(c2cccc(O)c2)C1 (stereo not drawn) [3-PPP]
[3]
  affinity for sigma versus dopaminergic receptors (in words): higher affinity for sigma receptor sites than for dopaminergic receptors

## COc1ccc2c(c1)C1CCCN3CCCC(C2)C13 (stereo not drawn) [11-methoxy OHNQ]
Sigma receptors [4]; rat cerebellar membranes
  sigma potency compared with reference compounds (in words): on the order of that observed for (+)-NaMM, (+)-3-PPP, as well as cis-fused tricyclic octahydrobenzo-(f) quinolines with hydroxyl groups on the aromatic ring
Sigma receptors [4]; rat cerebellar membranes, 2.0 nM (3H)-haloperidol, 25 nM spiperone
  IC50: 300 nM
Sigma receptors [4]
  binding to sigma sites (in words): considerably stronger binding
Sigma receptors [4]; rat cerebellar vs bovine cerebellar receptors
  sigma binding, rat versus bovine (in words): bound more specifically and with a higher affinity to rat cerebellar sigma receptors, than to bovine cerebellar receptors
Sigma receptors [5]
  binding to sigma sites (in words): weak sigma binding
Sigma receptors [5]; 2.0 nM (3H)-haloperidol, 25 nM spiperone
  IC50: 1500 nM

## CCCN1CCC[C@H](c2cccc(O)c2)C1 [(+)-(^3 H)-3-PPP, (+)-(^3 H)-3-(+)-3-(3-hydroxyphenyl) N-(1-propyl)piperidine]
Sigma receptor
  affinity for sigma receptors (in words): labeled with high affinity

## C=CCN1CCC2(C)c3cc(O)ccc3CC1C2C (stereo not drawn) [(^3 H)-NANM, N-allylnormetazocine]
Sigma receptor
  affinity for sigma receptors (in words): high affinity
PCP site
  affinity toward PCP sites (in words): low affinity

## c1ccc(C2(N3CCCCC3)CCCCC2)cc1 [(^3 H)-PCP, phencyclidine]
Sigma receptor
  affinity for sigma receptors (in words): not labeled

## c1csc(C2(N3CCCCC3)CCCCC2)c1 [(^3 H)-TCP, (^3 H)-1-((2-thienyl)cyclohexyl)piperidine]
Sigma receptor
  affinity for sigma receptors (in words): not labeled

## COc1ccc2c(c1)C1CCCN3CCCC(C2)C13 (stereo not drawn) [(trans,trans) 11-methoxy OHNQ]
D2 receptor
  activity at D-2 receptor sites (in words): modest but selective activity
5-HT-2 receptor
  activity at 5-HT-2 receptor sites (in words): modest but selective activity

## Cl.N#Cc1cccnc1N1CCN(CCCCN2C(=O)SC3(CCCC3)C2=O)CC1 [BMY 13980]
Sigma receptor
  affinity for sigma receptors (in words): moderate to high affinity

## OC(CCCN1CCN(c2ncc(F)cn2)CC1)c1ccc(F)cc1 (stereo not drawn) [BMY 14802]
sham-feeding rat [1]
  effect on volume of sucrose solution ingested (in words): no effect
[3]
  selectivity for sigma versus dopamine D2 receptors: 10 to 15 fold
Sigma receptor
  affinity for sigma receptors (in words): moderate to high affinity
sham-feeding rat [2]
  mean lick cluster size (in words): smaller mean lick cluster size
  interlick intervals (in words): significant decrease of interlick intervals
PCP site
  affinity toward PCP sites (in words): little or no affinity

## C1CC2CCCN3CCCC(C1)C23 (stereo not drawn) [HHJ, hexahydrojulolidine]
Sigma receptors [4]
  binding to sigma sites (in words): did not exhibit binding
Sigma receptors [5]
  binding to sigma sites (in words): did not exhibit binding

## Cl.Fc1ccc2[nH]c3c(c2c1)CN(CCCc1cccnc1)CC3 [WY 47,384]
Sigma receptor
  affinity for sigma receptors (in words): moderate to high affinity

## O=C1CC2(CCCC2)CC(=O)N1CCCCN1CCN(c2ncccn2)CC1 [buspirone]
Sigma receptor
  affinity for sigma receptors (in words): high affinity

## C=CCN1CC[C@]23c4c5ccc(O)c4O[C@H]2C(=O)CC[C@@]3(O)[C@H]1C5 [naloxone]
Sigma receptor; typical opiate receptor antagonists
  block of (3H)-NANM binding (in words): not blocked

## CCN1CCC[C@H]1CNC(=O)c1c(OC)ccc(Br)c1OC [remoxipride]
Sigma receptor
  affinity for sigma receptors (in words): moderate to high affinity
PCP site
  affinity toward PCP sites (in words): little or no affinity

## C[C@@H]1CN(CCCn2c3ccccc3c3ccccc32)C[C@H](C)N1 [rimcazole]
[3]
  selectivity for sigma versus dopamine D2 receptors: 10 to 15 fold
Sigma receptor
  affinity for sigma receptors (in words): moderate to high affinity
PCP site
  affinity toward PCP sites (in words): little or no affinity

## O=C(CCCN1CCC2(CC1)C(=O)NCN2c1ccccc1)c1ccc(F)cc1 [spiperone]
Sigma receptor
  affinity for sigma receptors (in words): not spiperone

## O=C1CC2(CCCC2)CC(=O)N1CCCCN1CCN(c2nsc3ccccc23)CC1 [tiospirone]
Sigma receptor
  affinity for sigma receptors (in words): moderate to high affinity

## c1ccc2c(c1)CC1CCCN3CCCC2C13 (stereo not drawn) [unsubstituted (trans,trans) OHNQ]
D2 receptor
  activity at D-2 receptor sites (in words): modest but selective activity
5-HT-2 receptor
  activity at 5-HT-2 receptor sites (in words): modest but selective activity
Sigma receptors [6]; crude liver homogenates
  IC50: 157 nM
Sigma receptors [6]; [7]
  IC50: 87 nM
  affinity to sigma receptors (in words): high affinity
